Measurements: article PMC2394492 (British Journal of Cancer, 2003)
One block for each compound: values may come before it.

What was measured:
[1] = cited from earlier work
[2] = molecular target: T1, dihydropyrimidine dehydrogenase (DPD) (Homo sapiens, UniProt Q12882); assay: Plasma uracil concentration as surrogate marker of DPD inhibition (pharmacodynamic analysis); format: in vivo; conditions: for AUC of uracil: 10 patients, surrogate marker of DPD inhibition
T1 construct: from tissue; host or cells: patients in vivo (DPD mainly in the liver); plasma sampled
T1 sequence (Q12882 4-1025): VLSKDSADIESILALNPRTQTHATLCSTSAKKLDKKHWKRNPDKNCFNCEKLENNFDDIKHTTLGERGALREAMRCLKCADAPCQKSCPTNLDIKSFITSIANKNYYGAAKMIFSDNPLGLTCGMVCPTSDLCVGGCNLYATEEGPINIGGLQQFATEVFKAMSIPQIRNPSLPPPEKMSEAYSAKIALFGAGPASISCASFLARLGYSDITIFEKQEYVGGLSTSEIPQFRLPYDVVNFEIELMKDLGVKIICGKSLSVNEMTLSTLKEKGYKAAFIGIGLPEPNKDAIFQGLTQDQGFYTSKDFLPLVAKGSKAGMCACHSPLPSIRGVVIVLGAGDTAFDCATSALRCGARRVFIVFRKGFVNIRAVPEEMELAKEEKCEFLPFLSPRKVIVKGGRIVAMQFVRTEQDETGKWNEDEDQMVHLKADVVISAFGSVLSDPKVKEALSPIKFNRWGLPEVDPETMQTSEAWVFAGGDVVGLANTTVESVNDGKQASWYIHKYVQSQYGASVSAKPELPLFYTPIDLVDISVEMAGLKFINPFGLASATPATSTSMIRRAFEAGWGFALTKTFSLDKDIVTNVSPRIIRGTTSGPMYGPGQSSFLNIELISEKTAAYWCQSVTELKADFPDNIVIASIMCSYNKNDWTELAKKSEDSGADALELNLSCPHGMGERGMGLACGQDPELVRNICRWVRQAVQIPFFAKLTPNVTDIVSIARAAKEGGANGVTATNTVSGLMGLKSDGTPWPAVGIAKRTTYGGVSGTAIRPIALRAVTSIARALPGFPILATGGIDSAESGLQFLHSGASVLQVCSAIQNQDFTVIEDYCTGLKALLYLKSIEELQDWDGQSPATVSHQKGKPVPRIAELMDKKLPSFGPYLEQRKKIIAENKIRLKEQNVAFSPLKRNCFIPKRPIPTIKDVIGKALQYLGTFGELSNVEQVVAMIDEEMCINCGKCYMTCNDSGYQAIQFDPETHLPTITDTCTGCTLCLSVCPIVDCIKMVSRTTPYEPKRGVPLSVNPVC
Experimental: All 10 patients received 5-FU by PVI at a rate of 250 mg m^−2 day^−1 via a peripheral vein. Infusion was carried out with the use of a battery-operated pump (STC-508, Terumo Co., Ltd., Tokyo, Japan) for five consecutive days. The assigned daily dose of 5-FU was diluted in 500 ml of normal saline for infusion.
On days 1 and 5 of 5-FU PVI, blood samples were taken at 0 (before administration), 2, 6, and 10 h after the start of the infusion (0900 hours in all patients). On days 2–4, one blood sample was obtained at 0900 hours before the start of the next 24-h cycle. […] On day 5, blood samples were obtained at 0, 2, […], and 10 h. Peripheral blood samples (6 ml per sampling time) were collected in heparinised tubes and centrifuged at 1000 g for 15 min at 4°C. The plasma was stored at −20°C until analysis. Urine was collected from 0 to 24 h after the start of drug administration on day 1 of each treatment and refrigerated during the collection period.
Analysis of 5-FU and uracil was carried out as described by [Matsushima et al (1997)], with minor modification. 5-Fluorouracil and uracil were extracted with ethyl acetate after washing with dichloromethane and were subjected to a reaction to induce their trimethylsilyl derivatives. 5-Fluorouracil and uracil were analysed by electron impact ionisation gas-chromatography/mass-spectrometry (GC–MS). For analysis of 5-FU by GC–MS, stable isotopes were used as internal standards. The measurable ranges of plasma or urine levels were 1–400 ng ml^−1 for 5-FU and 5–2000 ng ml^−1 for uracil. For analysis of FBAL, plasma was deproteinised with ethanol and washed with dichloromethane. F-β-alanine was treated with 2,4-dinitrofluorobenzene to derive its dinitrophenyl ester, and the reaction product was extracted with dichloromethane under acidic conditions. The reaction product was separated by high-pressure liquid chromatography (LC) with a reversed-phase column, and LC/tandem-mass spectrometry was performed with the use of negative ion-electron spray ionisation. DL-norvaline was used as an internal standard. […]

[3] = Plasma pharmacokinetics of 5-FU and FBAL after PVI of 5-FU and oral S-1 in patients; format: in vivo, human
Experimental: Infusion was carried out with the use of a battery-operated pump (STC-508, Terumo Co., Ltd., Tokyo, Japan) for five consecutive days. […] After a washout period of 9 days, patients received S-1 in two divided doses daily for 28 consecutive days. S-1 was administered orally within 1 h after breakfast and supper, at about 0900 and 1900 hours The daily dose of S-1 in terms of tegafur was 80 mg day^−1 in patients with a body surface area (BSA) of <1.25 m^2, 100 mg day^−1 in those with a BSA of ⩾1.25 m^2 to <1.5 m^2, and 120 mg day^−1 in those with a BSA of ⩾1.5 m^2.
On days 2–4, one blood sample was obtained at 0900 hours before the start of the next 24-h cycle. During oral administration of S-1, blood samples were taken on day 1 before the first dose of the day and at 1, 2, 4, 6, and 10 h. On days 2–4 of S-1 treatment, blood samples were taken before administration in the morning and at 4 and 10 h. On day 5, blood samples were obtained at 0, 2, 4, and 10 h. Peripheral blood samples (6 ml per sampling time) were collected in heparinised tubes and centrifuged at 1000 g for 15 min at 4°C. The plasma was stored at −20°C until analysis. Urine was collected from 0 to 24 h after the start of drug administration on day 1 of each treatment and refrigerated during the collection period.

[4] = system: dihydropyrimidine dehydrogenase (DPD); conditions: in vitro; background statement, no reference given; cited from earlier work
[5] = patients given 5-FU by PVI, ref Lokich et al, 1989

AUC of uracil ([2]; Day 1, 0 to 10 h): 200 ± 60 ng·h/mL
AUC of uracil ([2]; Day 5, 0 to 10 h): 252 ± 60 ng·h/mL
AUC0–10 h of uracil ([2]; day 5 (abstract)): 252 ± 60 ng·h/mL
time to steady state of plasma 5-FU concentration after the start of PVI ([3]; PVI of 5-FU): 2 h
AUC0–10 h of 5-FU ([3]; plasma, day 5 (abstract)): 728 ± 113 ng·h/mL
Compound: O=c1[nH]cc(F)c(=O)[nH]1 [5-FU, 5-fluorouracil]
dose-limiting toxicity (DLT) ([1]; 5-FU by PVI, ref Lokich et al, 1989): HFS
incidence of grade 3 leukopenia [1, 5]: 1%
incidence of hand–foot syndrome [1, 5]: about 23%
incidence of stomatitis [1, 5]: about 23%

Compound: Oc1cc(O)c(Cl)cn1 [CDHP, 5-chloro-2,4-dihydroxypyridine]
DPD-inhibitory activity relative to that of uracil [4]: 180 fold

Compound: CCCCCOC(=O)Nc1nc(=O)n([C@@H]2O[C@H](C)[C@@H](O)[C@H]2O)cc1F [capecitabine]
incidence of grade 3 HFS ([1]; capecitabine, ref Van Cutsem et al, 2000, 2001, Hoff et al, 2001): 15–18%
incidence of HFS ([1]; capecitabine, ref Van Cutsem et al, 2000): 45%
incidence of cardiotoxicity ([1]; randomised phase II trial, metastatic colorectal cancer, five out of 108, ref Van Cutsem et al, 2000): 5%
incidence of paresthesia ([1]; randomised phase II trial, metastatic colorectal cancer, ref Van Cutsem et al, 2000): 12%
